Assays:
[1] = system: CD8+ T cells of healthy HLA-A*02 donors; test: In vitro immunogenicity: in vitro T-cell priming with aAPCs loaded with peptide/MHC complexes and anti-CD28 antibody, pMHC multimer readout; format: cell-based, human; details: for Wells positive [%]: HLA-A*02 restricted peptides
Description: In order to obtain information regarding the immunogenicity of the TUMAPs of the present invention, the inventors performed investigations using an in vitro T-cell priming assay based on repeated stimulations of CD8+ T cells with artificial antigen presenting cells (aAPCs) loaded with peptide/MHC complexes and anti-CD28 antibody.
In order to perform in vitro stimulations by artificial antigen presenting cells loaded with peptide-MHC complex (pMHC) and anti-CD28 antibody, the inventors first isolated CD8+ T cells from fresh HLA-A*02 leukapheresis products via positive selection using CD8 microbeads (Miltenyi Biotec, Bergisch-Gladbach, Germany) of healthy donors obtained from the University clinics Mannheim, Germany, after informed consent. PBMCs and isolated CD8+ lymphocytes were incubated in T-cell medium (TCM) until use consisting of RPMI-Glutamax (Invitrogen, Karlsruhe, Germany) supplemented with 10% heat inactivated human AB serum (PAN-Biotech, Aidenbach, Germany), 100 U/ml Penicillin/100 μg/ml Streptomycin (Cambrex, Cologne, Germany), 1 mM sodium pyruvate (CC Pro, Oberdorla, Germany), 20 μg/ml Gentamycin (Cambrex). 2.5 ng/ml IL-7 (PromoCell, Heidelberg, Germany) and 10 U/ml IL-2 (Novartis Pharma, Nürnberg, Germany) were also added to the TCM at this step. Generation of pMHC/anti-CD28 coated beads, T-cell stimulations and readout was performed in a highly defined in vitro system using four different pMHC molecules per stimulation condition and 8 different pMHC molecules per readout condition.
The purified co-stimulatory mouse IgG2a anti human CD28 Ab 9.3 (Jung et al., 1987) was chemically biotinylated using Sulfo-N-hydroxysuccinimidobiotin as recommended by the manufacturer (Perbio, Bonn, Germany). Beads used were 5.6 μm diameter streptavidin coated polystyrene particles (Bangs Laboratories, Illinois, USA).
pMHC used for positive and negative control stimulations were A*0201/MLA-001 (peptide […] (SEQ ID NO. 289) from modified Melan-A/MART-1) and A*0201/DDX5-001 ([…] from DDX5, SEQ ID NO. 290), respectively.
800.000 beads/200 μl were coated in 96-well plates in the presence of 4×12.5 ng different biotin-pMHC, washed and 600 ng biotin anti-CD28 were added subsequently in a volume of 200 μl. Stimulations were initiated in 96-well plates by co-incubating 1×10^6 CD8+ T cells with 2×10^5 washed coated beads in 200 μl TCM supplemented with 5 ng/ml IL-12 (PromoCell) for 3 days at 37° C. Half of the medium was then exchanged by fresh TCM supplemented with 80 U/ml IL-2 and incubating was continued for 4 days at 37° C. This stimulation cycle was performed for a total of three times. For the pMHC multimer readout using 8 different pMHC molecules per condition, a two-dimensional combinatorial coding approach was used as previously described (Andersen et al., 2012) with minor modifications encompassing coupling to 5 different fluorochromes. Finally, multimeric analyses were performed by staining the cells with Live/dead near IR dye (Invitrogen, Karlsruhe, Germany), CD8-FITC antibody clone SK1 (BD, Heidelberg, Germany) and fluorescent pMHC multimers. For analysis, a BD LSRII SORP cytometer equipped with appropriate lasers and filters was used. Peptide specific cells were calculated as percentage of total CD8+ cells. Evaluation of multimeric analysis was done using the FlowJo software (Tree Star, Oregon, USA). In vitro priming of specific multimer+CD8+ lymphocytes was detected by comparing to negative control stimulations.

[2] = target: HLA-A*02:01 (Homo sapiens, UniProt P04439, D140Y/D185E/D98H/E176V/E277Q/G131W/G231S/I119V/I121R/I166T/I218V/L300P/L318F/N151K/N90K/P208A/P217A/Q86G/Q94H/R138H/R169H/T345S); test: MHC binding assay (UV-ligand exchange, beta2m ELISA); details: binding to HLA-A*02:01, β2m ELISA
Outline: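 UV-cleavable peptide in HLA monomers exchanged for test peptide by UV irradiation; exchange yield measured by streptavidin-capture ELISA with HRP anti-β2m (TMB, 450 nm) on 100-fold diluted complexes. Quantified against refolded HLA-A*02:01/MLA-001 standards (15-500 ng/ml).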

[3] = percentage of positive wells among evaluable

| Substance | Peptide exchange (MHC class I binding score, peptide exchange yield) [2] | Wells positive [%] [1, 3] | in vitro immunogenicity: donors ([1]; percentage of positive donors among evaluable, HLA-A*02 healthy donors, three stimulation cycles) | in vitro immunogenicity: wells ([1]; percentage of positive wells among evaluable, HLA-A*02 healthy donors, three stimulation cycles) |
| --- | --- | --- | --- | --- |
| 288 (SLYKGLLSV; listed as Homo sapiens) [compound 288] | – | – | ++++ (>=70% = ++++) | – |
| 236 (KMSELQTYV; listed as Homo sapiens) [compound 236] | +++ (≧50 = +++) | + (<20% = +) | – | – |
| 246 (ALAGIVTNV; listed as Homo sapiens) [compound 246] | +++ (≧50 = +++) | + (<20% = +) | – | – |
| 157 (ILQDGQFLV; listed as Homo sapiens) [compound 157] | ++ (≧20% = ++) | + (<20% = +) | – | – |
| 260 (ALNESLVEC; listed as Homo sapiens) [compound 260] | +++ (≧50 = +++) | + (<20% = +) | – | – |
| 255 (FLMKNSDLYGA; listed as Homo sapiens) [compound 255] | +++ (≧50 = +++) | + (<20% = +) | – | – |
| 242 (KLQEEIPVL; listed as Homo sapiens) [compound 242] | +++ (≧50 = +++) | + (<20% = +) | – | – |
| 233 (SLFESLEYL; listed as Homo sapiens) [compound 233] | +++ (≧50 = +++) | + (<20% = +) | – | – |
| 97 (KLFEKSTGL; listed as Homo sapiens) [compound 97] | +++ (≧50 = +++) | + (<20% = +) | – | – |
| 287 (KIQEILTQV; listed as Homo sapiens) [compound 287] | – | – | – | + (<20% = +) |
| 27 (GLLGKVTSV; listed as Homo sapiens) [compound 27] | +++ (≧50 = +++) | + (<20% = +) | – | – |
| 14 (YTFSGDVQL; listed as Homo sapiens) [compound 14] | +++ (≧50 = +++) | + (<20% = +) | – | – |
| 34 (TLNTLDINL; listed as Homo sapiens) [compound 34] | +++ (≧50 = +++) | ++++ (>=70% = ++++) | – | – |

Now from value to substance, other results behind:

| Peptide exchange (MHC class I binding score, peptide exchange yield) [2] | Substance | Wells positive [%] [1, 3] | in vitro immunogenicity: donors ([1]; percentage of positive donors among evaluable, HLA-A*02 healthy donors, three stimulation cycles) | in vitro immunogenicity: wells ([1]; percentage of positive wells among evaluable, HLA-A*02 healthy donors, three stimulation cycles) |
| --- | --- | --- | --- | --- |
| +++ (≧50 = +++) | 50 (ILLSVLHQL; listed as Homo sapiens) [compound 50] | + (<20% = +) | – | – |
| +++ (≧50 = +++) | 101 (SLLEVNEASSV; listed as Homo sapiens) [compound 101] | + (<20% = +) | – | – |
| +++ (≧50 = +++) | 102 (GLYPVTLVGV; listed as Homo sapiens) [compound 102] | + (<20% = +) | – | – |
| +++ (≧50 = +++) | 4 (VLFGELPAL; listed as Homo sapiens) [compound 4] | + (<20% = +) | – | – |
| +++ (≧50 = +++) | 89 (SLAETIFIV; listed as Homo sapiens) [compound 89] | + (<20% = +) | – | – |
| +++ (≧50 = +++) | 77 (ALYGNVQQV; listed as Homo sapiens) [compound 77] | + (<20% = +) | – | – |
| +++ (≧50 = +++) | 257 (KLIDHQGLYL; listed as Homo sapiens) [compound 257] | + (<20% = +) | – | – |
| +++ (≧50 = +++) | 263 (SIIEYLPTL; listed as Homo sapiens) [compound 263] | + (<20% = +) | – | – |
| ++ (≧20% = ++) | 35 (VIIKGLEEI; listed as Homo sapiens) [compound 35] | + (<20% = +) | – | – |
| ++ (≧20% = ++) | 121 (ALYVQAPTV; listed as Homo sapiens) [compound 121] | + (<20% = +) | – | – |
| +++ (≧50 = +++) | 267 (YLLDMPLWYL; listed as Homo sapiens) [compound 267] | + (<20% = +) | – | – |
| ++ (≧20% = ++) | 29 (KMISAIPTL; listed as Homo sapiens) [compound 29] | + (<20% = +) | – | – |
| +++ (≧50 = +++) | 39 (YLEDGFAYV; listed as Homo sapiens) [compound 39] | ++++ (>=70% = ++++) | – | – |
| ++++ (≧75% = ++++) | 17 (GLLPSAESIKL; listed as Homo sapiens) [compound 17] | + (<20% = +) | – | – |
| ++ (≧20% = ++) | 264 (TLHDQVHLL; listed as Homo sapiens) [compound 264] | + (<20% = +) | – | – |
| +++ (≧50 = +++) | 9 (SLITGQDLLSV; listed as Homo sapiens) [compound 9] | + (<20% = +) | – | – |
| ++ (≧20% = ++) | 254 (ALGDKFLLRV; listed as Homo sapiens) [compound 254] | + (<20% = +) | – | – |
| ++ (≧20% = ++) | 66 (AMFPDTIPRV; listed as Homo sapiens) [compound 66] | + (<20% = +) | – | – |

From US9802997B2, “Peptides and combination of peptides for use in immunotherapy against various tumors” (immatics biotechnologies GmbH, priority 2015, dated 2017)
